Test results taken from US20260250318A1, “COMPOSITIONS AND METHODS FOR CROSSING THE BLOOD BRAIN BARRIER” (VOYAGER THERAPEUTICS, INC., priority 2022, published 2026).

Tests used:
Conditions in all cases: synthetic library passage 3, intravenous, relative to wild-type AAV9
[1] = system: brain, spinal cord, and DRG of the NHPs; experiment: NGS fold enrichment of synthetic library (passage 3) in NHPs, first cross-species screen; assay type: in vivo, cynomolgus macaques (Macaca fascicularis)
In short: (§1)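 Synthetic capsid library (passage 3) was given intravenously […] to NHPs aged 2-4 years and to BALB/c and C57Bl/6 mice (n=3 each, 6-8 weeks). After about 28 days in vivo, tissue RNA was RT-PCR amplified and NGS-sequenced; values are fold enrichment per variant relative to wild-type AAV9.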

[2] = system: brain; experiment: NGS fold enrichment of synthetic library (passage 3) in BALB/c mice, first cross-species screen; assay type: in vivo
In short: as §1

[3] = system: brain; experiment: NGS fold enrichment of synthetic library (passage 3) in C57Bl/6 mice, first cross-species screen; assay type: in vivo
In short: as §1

[4] = RNA from spinal cord of NHPs, NGS
[5] = RNA from brain of BALB/c mice, NGS
[6] = RNA from brain of C57Bl/6 mice, NGS

Sequence	Fold enrichment over AAV9 in the brain of NHPs ([1]; RNA from brain of NHPs, NGS)	Fold enrichment over AAV9 in the spinal cord of NHPs [1, 4]	Fold enrichment over AAV9 in the brain of Mice (BALB/c) [2, 5]	Fold enrichment over AAV9 in the brain of Mice (C57Bl/6) [3, 6]	Fold enrichment over AAV9 in the brain of NHPs ([1]; RNA NGS, brain of NHPs)	Fold enrichment over AAV9 in the spinal cord of NHPs ([1]; RNA NGS, spinal cord of NHPs)	Fold enrichment over AAV9 in the brain of Mice (BALB/c) ([2]; RNA NGS, brain of BALB/c mice)	Fold enrichment over AAV9 in the brain of Mice (C57Bl/6) ([3]; RNA NGS, brain of C57Bl/6 mice)
GSGQNQSHYPSQQT	1.228 fold	4.315 fold	0.402 fold	0.644 fold				
GSGQNQSQNHLQQT					1.825 fold	0.600 fold	0.772 fold	1.063 fold
GSGQNQYLRLELQT					1.101 fold	0.000 fold	0.839 fold	0.416 fold
GSGQNQYSIPVAQT					1.891 fold	1.194 fold	0.297 fold	0.511 fold
GSGQNQYSQSSMQT					1.494 fold	4.278 fold	0.309 fold	0.375 fold
GSGQNQYSSTNPQT					1.542 fold	2.251 fold	0.535 fold	0.544 fold
GSGQNRAHAFLQQT					1.795 fold	0.000 fold	1.271 fold	1.200 fold
GSGQNRAQIGTQQT	1.138 fold	0.469 fold	0.654 fold	0.776 fold				
GSGQNRAQSRFQQT					3.043 fold	0.000 fold	1.788 fold	0.619 fold
GSGQNRGISISQQT					1.057 fold	2.166 fold	0.566 fold	0.686 fold
GSGQNRKPASFAQT					3.204 fold	0.000 fold	1.061 fold	0.892 fold
GSGQNSGVHFNQQT	1.268 fold	0.587 fold	0.377 fold	0.871 fold				
GSGQNSYSHTSQQT					1.765 fold	2.262 fold	0.658 fold	1.130 fold
GSGQNTGHLTMQQT					1.114 fold	0.078 fold	0.595 fold	1.026 fold
GSGQNTGQHMMQQT					1.090 fold	1.058 fold	0.917 fold	1.147 fold
GSGQNTRLQLGQQT					1.452 fold	1.747 fold	0.234 fold	0.181 fold
GSGQNVSMQVNQQT	1.341 fold	0.000 fold	0.251 fold	0.357 fold				
GSGQNVSSVHRQQT					1.045 fold	0.712 fold	0.271 fold	0.383 fold
GSGQNWPALKGQQT	1.284 fold	2.031 fold	1.222 fold	1.101 fold				
GSGQPRSTGINQQT					1.061 fold	0.693 fold	0.542 fold	0.650 fold

Sequence	Fold enrichment over AAV9 in the brain of NHPs ([1]; RNA from brain of NHPs, NGS)	Fold enrichment over AAV9 in the spinal cord of NHPs [1, 4]	Fold enrichment over AAV9 in the brain of Mice (BALB/c) [2, 5]	Fold enrichment over AAV9 in the brain of Mice (C57Bl/6) [3, 6]	Fold enrichment over AAV9 in the brain of NHPs ([1]; RNA NGS, brain of NHPs)	Fold enrichment over AAV9 in the spinal cord of NHPs ([1]; RNA NGS, spinal cord of NHPs)	Fold enrichment over AAV9 in the brain of Mice (BALB/c) ([2]; RNA NGS, brain of BALB/c mice)	Fold enrichment over AAV9 in the brain of Mice (C57Bl/6) ([3]; RNA NGS, brain of C57Bl/6 mice)
GSGQPVLSISNQQT					1.586 fold	2.695 fold	0.282 fold	0.390 fold
GSGQPYSTGLNQQT					1.519 fold	1.403 fold	0.376 fold	0.612 fold
GSGQQLSITPNQQT					1.979 fold	10.280 fold	0.201 fold	0.845 fold
GSGQREPKASNQQT	1.214 fold	2.793 fold	0.520 fold	0.399 fold				
GSGQRGSLTENQQT	1.337 fold	2.482 fold	0.567 fold	0.300 fold				
GSGQRLSQGVNHQT					1.108 fold	3.394 fold	1.141 fold	0.931 fold
GSGQRMADIGNQQT	1.233 fold	2.539 fold	0.427 fold	0.352 fold				
GSGQRNPLLLNQQT					1.693 fold	0.144 fold	0.740 fold	0.662 fold
GSGQRRELSQNQQT	1.215 fold	1.791 fold	0.396 fold	0.622 fold				
GSGQRSPVLPNQQT					2.369 fold	6.230 fold	0.526 fold	0.434 fold
GSGQSFQMHTNQQT					1.504 fold	9.770 fold	0.325 fold	0.503 fold
GSGQSHLHTGNQQT					1.096 fold	2.584 fold	0.295 fold	0.721 fold
GSGQSHMATLNQQT					2.657 fold	0.724 fold	0.504 fold	1.173 fold
GSGQSHRDVLNQQT					1.872 fold	15.082 fold	0.280 fold	0.138 fold
GSGQSHRQPENQQT					1.529 fold	2.153 fold	0.159 fold	0.209 fold
GSGQSHRSELNQQT					1.585 fold	11.974 fold	0.256 fold	0.668 fold
GSGQSHSLATNQQT					1.745 fold	2.711 fold	0.343 fold	1.021 fold
GSGQSHSLETNQQT	1.188 fold	1.319 fold	0.363 fold	0.520 fold				
GSGQSMTLHLNQQT					1.827 fold	0.991 fold	0.248 fold	0.721 fold
GSGQSREISLNQQT					1.088 fold	6.954 fold	0.282 fold	0.594 fold
